15 molecules from the Kinase Knowledgebase extract (Sharma et al. 2016) can be followed below.

For orientation: pIC50 means the IC50 on a negative log10 scale, so that one unit is a factor of ten. Read a high pIC50 as a small IC50.

The target in the experiment is CDK2 (human) (UniProt P24941). In words: Cell-Based Assay.

pIC50: −log10 of the molar value.

The molecule `Cc1c[nH]c(C)c1-c1ccnc(Nc2ccc(I)c(Cl)c2)n1` gave a pIC50 (a549) of 5.36.

Regarding `Cc1c[nH]c(C)c1-c1ccnc(Nc2ccc(C(F)(F)F)cc2)n1`, the pIC50 (a549) is 4.82, the pIC50 (ht-29) was 5.51 and the pIC50 (saos-2) is 4.77.

Consider `Cc1[nH]c(C#N)c(C)c1-c1ccnc(Nc2ccc(N(C)C)cc2)n1`, for which the pIC50 is 5.85 (a549), 6.77 (ht-29) and 5.82 (saos-2).

For the molecule `Cc1[nH]c(CN(C)C)c(C)c1-c1ccnc(Nc2ccc(F)cc2)n1`, the pIC50 is, setting by setting: (a549) 5.56; (ht-29) 5.49; (saos-2) 6.15.

For `Cc1ccc(Nc2nccc(-c3c(C)[nH]c(C#N)c3C)n2)cc1I`, the pIC50 (a549) is 5.44, the pIC50 (ht-29) was 6.14 and the pIC50 (saos-2) was 5.51.

With `Cc1[nH]c(CN2CCN(C)CC2)c(C)c1-c1ccnc(Nc2ccc(F)cc2)n1`, the pIC50 is 4.86 (a549), 5.29 (ht-29) and 4.85 (saos-2).

As for `Cc1[nH]c(C#N)c(C)c1-c1ccnc(Nc2ccc(I)cc2)n1`, the pIC50 was 6.29 (a549); 7.05 (hela); 4.45 (hs-27); 6.96 (ht-29); 4.43 (imr90); 6.35 (mcf-7). The same molecule showed a pIC50 (saos-2) of 6.12 and a pIC50 (w138) of 4.67.

As to `Cc1cc(Nc2nccc(-c3c(C)[nH]c(C#N)c3C)n2)ccc1Cl`, the pIC50 runs as follows: (a549) 5.36; (ht-29) 5.49; (saos-2) 5.23.

For `Cc1[nH]c(Br)c(C)c1-c1ccnc(Nc2cccc([N+](=O)[O-])c2)n1`, the pIC50 reads like this: (a549) 5.12; (ht-29) 5.53; (saos-2) 4.91.

On to `Cc1ccc(Nc2nccc(-c3c(C)[nH]c(C#N)c3C)n2)cc1F`, for which the pIC50 was 5.83 (a549), 6.55 (ht-29) and 5.65 (saos-2).

Consider `Cc1[nH]c(C#N)c(C)c1-c1ccnc(Nc2ccc(C(F)(F)F)cc2)n1`, for which the pIC50 was 5.44 (a549), 6.02 (ht-29) and 5.47 (saos-2).

On to `Cc1[nH]c(C#N)c(C)c1-c1ccnc(Nc2ccc(F)cc2)n1`, for which the pIC50 by setting is: (hs-27) 4.82; (imr90) 4.68; (w138) 5.02.

Turning to `Cc1[nH]c(C#N)c(C)c1-c1ccnc(Nc2cccc(O)c2)n1`, the pIC50 (saos-2) was 6.05.

Take `CCN(CC)Cc1[nH]c(C)c(-c2ccnc(Nc3ccc(F)cc3)n2)c1C`: the pIC50 (a549) is 6.01, the pIC50 (ht-29) is 5.88 and the pIC50 (saos-2) was 5.79.

As for `Cc1[nH]c([N+](=O)[O-])c(C)c1-c1ccnc(Nc2ccc(N(C)C)cc2)n1`, the pIC50 is, setting by setting: (a549) 5.52; (ht-29) 6.21; (saos-2) 5.58.
